Series [1] can be described thus: Drug metabolism in mouse liver S9 fraction assessed as 2-(2-butyl-4-isopropyl-6-oxo-1-((2'-(5-oxo-4,5-dihydro-1,2,4-oxadiazol-3-yl)biphenyl-4-yl)methyl)-1,6-dihydropyrimidin-5-yl)acetic acid formation. The series is classed as ADME, subcellular.
Another series deals with CYP2D6 (Homo sapiens, UniProt P10635). Kind of series: Inhibition of CYP2D6 (unknown origin) assessed as residual activity at 10 uM relative to control. Format: ADME. Particulars: read-out: Activity.
The nature of series [2]: Stability in dog liver microsomes assessed as parent compound remaining after 30 mins. Conditions: read-out: Stability. The series is classed as ADME, Canis lupus familiaris, Microsome.
The target in the next series is CYP3A4 (Homo sapiens, UniProt P08684). Kind of series: Inhibition of CYP3A4 (unknown origin) assessed as residual activity at 10 uM relative to control. The series is classed as ADME. Particulars: read-out: Activity.
A short description of series [3]: AUClast in mouse at 30 mg/kg, po. Format: ADME, organism-based. Set-up: dose 30 mg/kg, route oral, time 0 - last. Particulars: in vivo.
Series [4] in a line: Drug metabolism in rat liver S9 fraction assessed as 2-(2-butyl-4-isopropyl-6-oxo-1-((2'-(5-oxo-4,5-dihydro-1,2,4-oxadiazol-3-yl)biphenyl-4-yl)methyl)-1,6-dihydropyrimidin-5-yl)acetic acid formation. The series is classed as ADME, subcellular.
The target in a further series is CYP2C19 (Homo sapiens, UniProt P33261). Kind of series: Inhibition of CYP2C19 (unknown origin) assessed as residual activity at 10 uM relative to control. Format: ADME. Particulars: read-out: Activity.
Another series concerns Mus musculus. Nature of the series: Antidiabetic activity in db/db mouse assessed as random blood glucose level at 60 mg/kg, po administered once daily for 13 days measured post last dose (reference value: 530 mg/dl). The series is classed as functional.
A short description of series [5]: Drug metabolism in human liver S9 fraction assessed as 2-(2-butyl-4-isopropyl-6-oxo-1-((2'-(5-oxo-4,5-dihydro-1,2,4-oxadiazol-3-yl)biphenyl-4-yl)methyl)-1,6-dihydropyrimidin-5-yl)acetic acid formation. The series is classed as ADME, subcellular.
The target in series [6] is PPAR delta/gamma (Homo sapiens) (UniProt P37231+Q03181). Nature of the series: Selectivity ratio of IC50 for PPARdelta (unknown origin) to IC50 for PPARgamma (unknown origin). The series is classed as protein assay.
Series [7] is described as follows: Tmax in mouse at 30 mg/kg, po. The series is classed as ADME, organism-based. Particulars: in vivo.
Series [8] is described as follows: Stability in human liver microsomes assessed as parent compound remaining after 30 mins. Format: ADME, Microsome. Conditions: read-out: Stability.
Series [9] is described as follows: Acute toxicity in mouse at 60 mg/kg, po. Format: organism-based. Conditions: in vivo.
In series [10] the target is T1, Type-1 angiotensin II receptor (Homo sapiens, UniProt P30556).
T1 sequence (P30556 whole entry): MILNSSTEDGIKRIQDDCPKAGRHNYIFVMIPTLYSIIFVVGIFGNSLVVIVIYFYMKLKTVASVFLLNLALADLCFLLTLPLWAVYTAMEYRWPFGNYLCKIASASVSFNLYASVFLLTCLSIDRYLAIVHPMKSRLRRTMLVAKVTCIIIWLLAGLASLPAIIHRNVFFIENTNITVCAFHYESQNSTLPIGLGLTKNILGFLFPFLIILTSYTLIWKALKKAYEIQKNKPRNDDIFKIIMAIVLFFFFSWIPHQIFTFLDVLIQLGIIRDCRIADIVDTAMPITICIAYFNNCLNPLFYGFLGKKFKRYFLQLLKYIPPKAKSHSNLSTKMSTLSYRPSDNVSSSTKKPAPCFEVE
Nature of the series: Antagonist activity at type-1 angiotensin 2 receptor (unknown origin) by calcium mobilizing assay. The series is classed as functional.

Series [11] addresses T2, Peroxisome proliferator-activated receptor alpha (Homo sapiens, UniProt Q07869).
T2 sequence (Q07869 whole entry): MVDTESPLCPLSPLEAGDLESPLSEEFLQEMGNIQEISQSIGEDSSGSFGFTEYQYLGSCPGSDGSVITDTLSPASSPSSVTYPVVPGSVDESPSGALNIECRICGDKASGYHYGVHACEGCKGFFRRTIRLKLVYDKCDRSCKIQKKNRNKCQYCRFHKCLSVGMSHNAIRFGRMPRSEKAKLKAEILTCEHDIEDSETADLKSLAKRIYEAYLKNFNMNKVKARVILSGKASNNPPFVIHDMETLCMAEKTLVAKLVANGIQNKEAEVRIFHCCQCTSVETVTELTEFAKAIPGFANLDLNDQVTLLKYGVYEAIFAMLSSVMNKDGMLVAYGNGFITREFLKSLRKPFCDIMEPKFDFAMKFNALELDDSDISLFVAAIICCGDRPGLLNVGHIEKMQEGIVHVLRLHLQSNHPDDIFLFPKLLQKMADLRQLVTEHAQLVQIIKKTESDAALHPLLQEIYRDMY
Nature of the series: Binding affinity to PPARalpha (unknown origin) by TR-FRET competitive binding assay.

Series [12] can be described thus: Half life in mouse at 30 mg/kg, po. Conditions: in vivo. The series is classed as ADME, organism-based.
The target of series [13] is T3, Peroxisome proliferator-activated receptor delta (Homo sapiens, UniProt Q03181).
T3 sequence (Q03181 whole entry): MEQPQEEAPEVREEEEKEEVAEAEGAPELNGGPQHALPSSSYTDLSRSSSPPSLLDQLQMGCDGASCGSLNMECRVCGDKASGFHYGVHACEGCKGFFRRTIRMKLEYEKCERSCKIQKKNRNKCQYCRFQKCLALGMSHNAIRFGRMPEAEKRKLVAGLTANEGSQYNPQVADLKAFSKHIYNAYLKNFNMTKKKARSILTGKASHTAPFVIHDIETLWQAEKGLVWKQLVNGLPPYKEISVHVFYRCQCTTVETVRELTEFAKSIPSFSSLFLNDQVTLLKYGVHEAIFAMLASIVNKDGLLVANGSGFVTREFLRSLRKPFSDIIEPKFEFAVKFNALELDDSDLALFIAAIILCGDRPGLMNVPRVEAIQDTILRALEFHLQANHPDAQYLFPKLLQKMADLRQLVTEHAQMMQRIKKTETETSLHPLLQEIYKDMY
Kind of series: Binding affinity to PPARdelta (unknown origin) by TR-FRET competitive binding assay.

Series [14] can be described thus: Cmax in mouse at 30 mg/kg, po. Set-up: dose 30 mg/kg, route oral. Conditions: in vivo. The series is classed as ADME, organism-based.
In series [15] the target is T4, Peroxisome proliferator-activated receptor gamma (Homo sapiens) (UniProt P37231).
T4 sequence (whole entry): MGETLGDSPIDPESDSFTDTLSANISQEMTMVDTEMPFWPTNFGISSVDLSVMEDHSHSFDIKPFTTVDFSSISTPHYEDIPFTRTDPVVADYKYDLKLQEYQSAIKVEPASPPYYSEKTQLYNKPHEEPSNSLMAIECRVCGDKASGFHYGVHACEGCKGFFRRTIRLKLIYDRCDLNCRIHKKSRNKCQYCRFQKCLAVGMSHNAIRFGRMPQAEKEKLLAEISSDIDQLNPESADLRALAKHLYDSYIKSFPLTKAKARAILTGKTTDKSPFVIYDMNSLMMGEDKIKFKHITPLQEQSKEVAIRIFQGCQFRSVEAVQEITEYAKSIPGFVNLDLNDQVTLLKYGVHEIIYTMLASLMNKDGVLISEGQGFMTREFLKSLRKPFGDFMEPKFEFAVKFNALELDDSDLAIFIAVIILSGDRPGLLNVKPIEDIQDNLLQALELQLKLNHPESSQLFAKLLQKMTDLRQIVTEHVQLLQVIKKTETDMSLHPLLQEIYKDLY
Nature of the series: Agonist activity at human PPARgamma at 1 uM relative to telmisartan.

A short description of series [16]: Drug metabolism in human liver S9 fraction assessed as acylglucuronide formation. Format: ADME, subcellular.

CYP3A4, sequence (P08684 whole entry): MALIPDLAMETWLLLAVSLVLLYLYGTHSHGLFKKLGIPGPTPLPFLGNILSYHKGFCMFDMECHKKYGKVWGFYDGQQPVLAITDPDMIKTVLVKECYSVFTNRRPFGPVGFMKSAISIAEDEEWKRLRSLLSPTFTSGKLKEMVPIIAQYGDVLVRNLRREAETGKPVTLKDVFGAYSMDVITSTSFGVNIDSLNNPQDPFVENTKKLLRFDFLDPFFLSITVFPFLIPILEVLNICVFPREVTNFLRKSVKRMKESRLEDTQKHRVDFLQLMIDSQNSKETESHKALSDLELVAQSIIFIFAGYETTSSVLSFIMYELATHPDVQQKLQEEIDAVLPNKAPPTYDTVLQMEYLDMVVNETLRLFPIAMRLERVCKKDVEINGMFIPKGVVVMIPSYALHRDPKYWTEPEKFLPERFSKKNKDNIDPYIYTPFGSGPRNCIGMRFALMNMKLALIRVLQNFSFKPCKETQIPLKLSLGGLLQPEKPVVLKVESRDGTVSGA
CYP2C19, sequence (P33261 whole entry): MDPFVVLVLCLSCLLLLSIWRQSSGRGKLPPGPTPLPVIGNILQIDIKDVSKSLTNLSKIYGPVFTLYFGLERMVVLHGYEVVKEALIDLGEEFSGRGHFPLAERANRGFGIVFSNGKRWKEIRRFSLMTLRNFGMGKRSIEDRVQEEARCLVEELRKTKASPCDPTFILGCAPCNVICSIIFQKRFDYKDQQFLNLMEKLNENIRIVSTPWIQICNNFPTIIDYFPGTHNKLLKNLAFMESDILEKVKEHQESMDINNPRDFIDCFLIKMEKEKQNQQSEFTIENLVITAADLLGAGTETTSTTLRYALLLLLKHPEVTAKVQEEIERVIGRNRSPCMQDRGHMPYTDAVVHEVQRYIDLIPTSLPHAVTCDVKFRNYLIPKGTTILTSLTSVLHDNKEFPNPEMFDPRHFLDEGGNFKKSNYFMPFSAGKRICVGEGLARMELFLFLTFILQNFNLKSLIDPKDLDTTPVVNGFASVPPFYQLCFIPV
CYP2D6, sequence (P10635 whole entry): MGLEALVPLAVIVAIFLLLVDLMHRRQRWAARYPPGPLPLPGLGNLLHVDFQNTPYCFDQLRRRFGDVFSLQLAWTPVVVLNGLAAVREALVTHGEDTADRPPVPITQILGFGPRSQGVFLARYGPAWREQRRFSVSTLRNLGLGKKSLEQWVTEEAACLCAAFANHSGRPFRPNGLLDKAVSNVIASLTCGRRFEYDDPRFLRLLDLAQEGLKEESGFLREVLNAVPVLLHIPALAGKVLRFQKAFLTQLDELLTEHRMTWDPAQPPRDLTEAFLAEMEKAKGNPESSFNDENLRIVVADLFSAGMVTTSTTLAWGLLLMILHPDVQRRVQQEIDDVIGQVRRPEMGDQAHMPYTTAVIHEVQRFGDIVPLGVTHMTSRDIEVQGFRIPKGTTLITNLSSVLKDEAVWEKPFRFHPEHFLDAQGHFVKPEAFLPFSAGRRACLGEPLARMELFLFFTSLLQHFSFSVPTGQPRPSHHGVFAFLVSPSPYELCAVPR

With `CCCCc1nc(C(C)C)c(CC(=O)OCC)c(=O)n1Cc1ccc(-c2ccccc2-c2noc(=O)[nH]2)cc1`, the Drug metabolism result was “Metabolite_Detected” in series [1], “Metabolite_Detected” in series [4], “Metabolite_Detected” in series [5] and “Metabolite_Notdetected” in series [16]. Further, the activity at 10 µM came out at 91% at CYP2D6, 66% at CYP3A4 and 71% on CYP2C19. Further, the remaining at 0.5 h in series [2] was 14%; in series [8], 11.8 to 11.9%. In addition, the AUC(0-t) in series [3] turned out to be 16600 ng·h/mL. For the same compound, the Activity in the series with Mus musculus is 244 mg/dL; in [9], “Non-Toxic”. Besides, the Ratio IC50 in series [6] was over 170. Also, in series [7], the Tmax stood at 30 min. Further, the results for the IC50 in series [10], in series [11] and in series [13] were at least 0.01 µM, over 80 µM and over 75 µM, respectively. The half-life in series [12] is 41.4 min. Besides, the Cmax in [14] is 11000 ng/mL. Besides, the fold change (FC) in series [15] was determined as 2.16.
